ChEMBL document CHEMBL3885881, “DrugMatrix”

Species on record: Rattus norvegicus
Test: DrugMatrix - Regimen: Daily Repeat
Type: toxicity, organism-based, Sprague-Dawley
Set-up: regimen Daily Repeat, gender Male, age 6-8 weeks
Settings: in vivo, po, route oral GAVAGE, vehicle .5 % CMC; for ABSOLUTE BASOPHIL / ABSOLUTE EOSINOPHIL / ABSOLUTE LYMPHOCYTE / ABSOLUTE MONOCYTE / ABSOLUTE SEGMENTED NEUTROPHIL / BASOPHIL / EOSINOPHIL / ERYTHROCYTE COUNT / HEMATOCRIT / HEMOGLOBIN / LEUKOCYTE COUNT / LYMPHOCYTE / MEAN CORPUSCULAR HEMOGLOBIN / MEAN CORPUSCULAR HEMOGLOBIN CONCENTRATION / MEAN CORPUSCULAR VOLUME / MONOCYTE / NEUTROPHIL / NUCLEATED RED BLOOD CELLS / PLATELET COUNT: tissue Blood; for ALANINE AMINOTRANSFERASE / ALBUMIN / ALKALINE PHOSPHATASE / ASPARTATE AMINOTRANSFERASE / BLOOD UREA NITROGEN / CARBON DIOXIDE / CHLORIDE / CHOLESTEROL / CREATINE PHOSPHOKINASE / CREATININE / GLUCOSE / LACTATE DEHYDROGENASE / LIPASE / PHOSPHORUS / POTASSIUM / SODIUM / TOTAL BILIRUBIN / TOTAL PROTEIN / URIC ACID: tissue Plasma
[1] = 10 mg/kg, 72 h, dose level Low, time 3 day
[2] = 10 mg/kg, 120 h, dose level Low, time 5 day
[3] = 200 mg/kg, 72 h, dose level High, time 3 day
[4] = 200 mg/kg, 120 h, dose level High, time 5 day

Compound: Nc1nc(N)c2nc(-c3ccccc3)c(N)nc2n1
- ABSOLUTE BASOPHIL [1]: 0 CELLS/uL
- ABSOLUTE EOSINOPHIL [1]: 222 CELLS/uL
- ABSOLUTE LYMPHOCYTE [1]: 17071.33 CELLS/uL
- ABSOLUTE MONOCYTE [1]: 553.33 CELLS/uL
- ABSOLUTE SEGMENTED NEUTROPHIL [1]: 1620 CELLS/uL
- BASOPHIL [1]: 0%
- EOSINOPHIL [1]: 1%
- ERYTHROCYTE COUNT [1]: 5.9 x10E6/uL
- HEMATOCRIT [1]: 37.03%
- HEMOGLOBIN [1]: 13.67 G/DL
- LEUKOCYTE COUNT [1]: 19.47 x10E3/uL
- LYMPHOCYTE [1]: 87.33%
- MEAN CORPUSCULAR HEMOGLOBIN [1]: 23.17 pg
- MEAN CORPUSCULAR HEMOGLOBIN CONCENTRATION [1]: 36.93 G/DL
- MEAN CORPUSCULAR VOLUME [1]: 62.7 fL
- MONOCYTE [1]: 3%
- NEUTROPHIL [1]: 8.67%
- NUCLEATED RED BLOOD CELLS [1]: 0 /100WBC
- PLATELET COUNT [1]: 1434.33 x10E3/uL
- ALANINE AMINOTRANSFERASE [1]: 48.33 u/L
- ALBUMIN [1]: 4.3 G/DL
- ALKALINE PHOSPHATASE [1]: 469.67 u/L
- ASPARTATE AMINOTRANSFERASE [1]: 88 u/L
- BLOOD UREA NITROGEN [1]: 15.33 mg/dL
- CARBON DIOXIDE [1]: 24 mmol/L
- CHLORIDE [1]: 104.67 MEQ/L
- CHOLESTEROL [1]: 67.33 mg/dL
- CREATINE PHOSPHOKINASE [1]: 281 u/L
- CREATININE [1]: 0.21 mg/dL
- GLUCOSE [1]: 161.33 mg/dL
- LACTATE DEHYDROGENASE [1]: 437.67 u/L
- LIPASE [1]: 8.67 u/L
- PHOSPHORUS [1]: 13.37 mg/dL
- POTASSIUM [1]: 6.69 MEQ/L
- SODIUM [1]: 147.13 MEQ/L
- TOTAL BILIRUBIN [1]: 0.23 mg/dL
- TOTAL PROTEIN [1]: 6.03 G/DL
- URIC ACID [1]: 2.37 mg/dL
- ABSOLUTE BASOPHIL [2]: 0 CELLS/uL
- ABSOLUTE EOSINOPHIL [2]: 142.67 CELLS/uL
- ABSOLUTE LYMPHOCYTE [2]: 11218.33 CELLS/uL
- ABSOLUTE MONOCYTE [2]: 128 CELLS/uL
- ABSOLUTE SEGMENTED NEUTROPHIL [2]: 1311 CELLS/uL
- BASOPHIL [2]: 0%
- EOSINOPHIL [2]: 1.33%
- ERYTHROCYTE COUNT [2]: 5.9 x10E6/uL
- HEMATOCRIT [2]: 36.6%
- HEMOGLOBIN [2]: 13.67 G/DL
- LEUKOCYTE COUNT [2]: 12.8 x10E3/uL
- LYMPHOCYTE [2]: 87.67%
- MEAN CORPUSCULAR HEMOGLOBIN [2]: 23.17 pg
- MEAN CORPUSCULAR HEMOGLOBIN CONCENTRATION [2]: 37.33 G/DL
- MEAN CORPUSCULAR VOLUME [2]: 62 fL
- MONOCYTE [2]: 1%
- NEUTROPHIL [2]: 10%
- NUCLEATED RED BLOOD CELLS [2]: 0.33 /100WBC
- PLATELET COUNT [2]: 1227.67 x10E3/uL
- ALANINE AMINOTRANSFERASE [2]: 45.33 u/L
- ALBUMIN [2]: 4.2 G/DL
- ALKALINE PHOSPHATASE [2]: 320.33 u/L
- ASPARTATE AMINOTRANSFERASE [2]: 83 u/L
- BLOOD UREA NITROGEN [2]: 18.67 mg/dL
- CARBON DIOXIDE [2]: 26 mmol/L
- CHLORIDE [2]: 106.67 MEQ/L
- CHOLESTEROL [2]: 68.33 mg/dL
- CREATINE PHOSPHOKINASE [2]: 371.67 u/L
- CREATININE [2]: 0.19 mg/dL
- GLUCOSE [2]: 145 mg/dL
- LACTATE DEHYDROGENASE [2]: 432 u/L
- LIPASE [2]: 9 u/L
- PHOSPHORUS [2]: 11.77 mg/dL
- POTASSIUM [2]: 5.68 MEQ/L
- SODIUM [2]: 147.3 MEQ/L
- TOTAL BILIRUBIN [2]: 0.17 mg/dL
- TOTAL PROTEIN [2]: 5.93 G/DL
- URIC ACID [2]: 1.3 mg/dL
- ABSOLUTE BASOPHIL [3]: 0 CELLS/uL
- ABSOLUTE EOSINOPHIL [3]: 51 CELLS/uL
- ABSOLUTE LYMPHOCYTE [3]: 12546 CELLS/uL
- ABSOLUTE MONOCYTE [3]: 436.67 CELLS/uL
- ABSOLUTE SEGMENTED NEUTROPHIL [3]: 1333 CELLS/uL
- BASOPHIL [3]: 0%
- EOSINOPHIL [3]: 0.33%
- ERYTHROCYTE COUNT [3]: 5.38 x10E6/uL
- HEMATOCRIT [3]: 33.6%
- HEMOGLOBIN [3]: 13.03 G/DL
- LEUKOCYTE COUNT [3]: 14.37 x10E3/uL
- LYMPHOCYTE [3]: 87.33%
- MEAN CORPUSCULAR HEMOGLOBIN [3]: 24.23 pg
- MEAN CORPUSCULAR HEMOGLOBIN CONCENTRATION [3]: 38.83 G/DL
- MEAN CORPUSCULAR VOLUME [3]: 62.47 fL
- MONOCYTE [3]: 3%
- NEUTROPHIL [3]: 9.33%
- NUCLEATED RED BLOOD CELLS [3]: 0.33 /100WBC
- PLATELET COUNT [3]: 1312 x10E3/uL
- ALANINE AMINOTRANSFERASE [3]: 57.33 u/L
- ALBUMIN [3]: 4.17 G/DL
- ALKALINE PHOSPHATASE [3]: 279 u/L
- ASPARTATE AMINOTRANSFERASE [3]: 70.67 u/L
- BLOOD UREA NITROGEN [3]: 22.33 mg/dL
- CARBON DIOXIDE [3]: 27.67 mmol/L
- CHLORIDE [3]: 104.67 MEQ/L
- CHOLESTEROL [3]: 86.67 mg/dL
- CREATINE PHOSPHOKINASE [3]: 220 u/L
- CREATININE [3]: 0.24 mg/dL
- GLUCOSE [3]: 154 mg/dL
- LACTATE DEHYDROGENASE [3]: 170.33 u/L
- LIPASE [3]: 9.33 u/L
- PHOSPHORUS [3]: 12.93 mg/dL
- POTASSIUM [3]: 6.66 MEQ/L
- SODIUM [3]: 145.07 MEQ/L
- TOTAL BILIRUBIN [3]: 0.17 mg/dL
- TOTAL PROTEIN [3]: 5.8 G/DL
- URIC ACID [3]: 1.5 mg/dL
- ABSOLUTE BASOPHIL [4]: 0 CELLS/uL
- ABSOLUTE EOSINOPHIL [4]: 238.67 CELLS/uL
- ABSOLUTE LYMPHOCYTE [4]: 14472.33 CELLS/uL
- ABSOLUTE MONOCYTE [4]: 270.33 CELLS/uL
- ABSOLUTE SEGMENTED NEUTROPHIL [4]: 2185.33 CELLS/uL
- BASOPHIL [4]: 0%
- EOSINOPHIL [4]: 1.33%
- ERYTHROCYTE COUNT [4]: 5.62 x10E6/uL
- HEMATOCRIT [4]: 33.9%
- HEMOGLOBIN [4]: 13.03 G/DL
- LEUKOCYTE COUNT [4]: 17.17 x10E3/uL
- LYMPHOCYTE [4]: 84.33%
- MEAN CORPUSCULAR HEMOGLOBIN [4]: 23.2 pg
- MEAN CORPUSCULAR HEMOGLOBIN CONCENTRATION [4]: 38.43 G/DL
- MEAN CORPUSCULAR VOLUME [4]: 60.33 fL
- MONOCYTE [4]: 1.67%
- NEUTROPHIL [4]: 12.67%
- NUCLEATED RED BLOOD CELLS [4]: 0.67 /100WBC
- PLATELET COUNT [4]: 1441.67 x10E3/uL
- ALANINE AMINOTRANSFERASE [4]: 49.33 u/L
- ALBUMIN [4]: 4.13 G/DL
- ALKALINE PHOSPHATASE [4]: 284.33 u/L
- ASPARTATE AMINOTRANSFERASE [4]: 91.33 u/L
- BLOOD UREA NITROGEN [4]: 20 mg/dL
- CARBON DIOXIDE [4]: 27 mmol/L
- CHLORIDE [4]: 102.67 MEQ/L
- CHOLESTEROL [4]: 62.33 mg/dL
- CREATINE PHOSPHOKINASE [4]: 540.67 u/L
- CREATININE [4]: 0.21 mg/dL
- GLUCOSE [4]: 156.67 mg/dL
- LACTATE DEHYDROGENASE [4]: 601 u/L
- LIPASE [4]: 8.67 u/L
- PHOSPHORUS [4]: 13.17 mg/dL
- POTASSIUM [4]: 5.78 MEQ/L
- SODIUM [4]: 147.03 MEQ/L
- TOTAL BILIRUBIN [4]: 0.13 mg/dL
- TOTAL PROTEIN [4]: 5.8 G/DL
- URIC ACID [4]: 1.77 mg/dL
